Reference: PubChem BioAssay AID1959 (Broad Institute, 2009)
The source made the active and inactive calls.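 Rule for the calls: active = growth-inhibition EC50 no more than tenfold above the top tested dose; inconclusive = flat fit between 30% and 70% inhibition, or unreliable fit; inactive = EC50 more than tenfold above the top tested dose.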

These compounds were tested on E. coli NEB5alpha growth, BacTiter-Glo luminescence, 4 h (assay: antibacterial activity against E. coli NEB5alpha – luminescence, counter-screen for MEX-5/POS-1 RNA-binding inhibitor project, dose response (AID 1959);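 note: pUC19-transformed ampicillin-resistant cells grown in LB with ampicillin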).
With CCOc1ccc(NC(=O)COc2ccccc2)c([N+](=O)[O-])c1 the EC50 was > 11 µM (inactive).
CCOc1ccc(-n2c(O)c(/C=C3\C=Nc4ccccc43)c(=O)[nH]c2=O)cc1 was tested, and the EC50 was > 11 µM (inactive).
Cc1ccc(/C=C2\Oc3c(ccc(O)c3CN3CCN(C)CC3)C2=O)cc1 was tested, and the EC50 was > 11 µM (inactive).
In the case of NC(=O)C1(N2CCCCC2)CCN(Cc2nc(-c3cccs3)no2)CC1, the EC50 is reported as > 11 µM (inactive).
With O=C(Cn1cc(C=C2C(=O)NC(=O)NC2=O)c2ccccc21)NCC1CCCO1 (centres undefined) the EC50 was > 11 µM (inactive).
In the case of COC(=O)CCCC1=CC2=CC(=O)C(C)(OC(=O)c3cccs3)C(=O)C2=CO1 (centres undefined), the EC50 is reported as > 11 µM (inactive).
In the case of Cc1ccc2oc(=O)c(/C=C(\O)c3cccs3)nc2c1, the EC50 is reported as > 11 µM (inactive).
CC(C)CNC(=O)C1Nc2ccc(C(F)(F)F)cc2C2C=CCC12 (centres undefined) was tested, and the EC50 was > 11 µM (inactive).
CC1=NN(C(N)=S)C(=O)C1N=Nc1cccc(C(=O)O)c1 (centres undefined) was tested, and the EC50 was > 11 µM (inactive).
With CN(C)CCN(C)Cc1c2ccccc2c(CN(C)CCN(C)C)c2ccccc12 the EC50 was > 11 µM (inactive).
With CCn1c(/C=C/c2c(C)[nH]c3ccccc23)nc2ccccc2c1=O the EC50 was > 11 µM (inactive).
Cc1nc(S/C(=C\c2ccc(-c3ccc(C(=O)O)c(Cl)c3)o2)C(=O)O)n[nH]1 was tested, and the EC50 was > 11 µM (inactive).
In the case of CCOc1cc(/C=C2\C(=O)NC(=O)N(CCc3ccc(F)cc3)C2=O)ccc1O, the EC50 is reported as > 11 µM (inactive).
CCOc1cc(C2C(C#N)=C(N)OC(C)=C2C(C)=O)cc(Br)c1O (centres undefined) was tested, and the EC50 was > 11 µM (inactive).
Cc1ccc(CS(=O)Cc2ccc(C(=O)N3CCN(c4ccccc4)CC3)o2)cc1 (centres undefined) was tested, and the EC50 was > 11 µM (inactive).
COC/C=C/C1=CC2=CC(=O)C(C)(OC(=O)CCC(=O)OC)C(=O)C2=CO1 (centres undefined) was tested, and the EC50 was > 11 µM (inactive).
In the case of C/C(O)=c1/ccc2cccc3nc(C)nc1c23, the EC50 is reported as > 11 µM (inactive).
CN1C(=O)/C(=C/c2ccc(N3CCCCCC3)o2)C(=O)NC1=S was tested, and the EC50 was > 11 µM (inactive).
Cc1cc([N+](=O)[O-])nn1CC(=O)NNC(=S)Nc1ccc([N+](=O)[O-])cc1 was tested, and the EC50 was > 11 µM (inactive).
In the case of Fc1ccc2c(c1)C1C=CCC1C(c1cc3c(cc1Br)OCO3)N2 (centres undefined), the EC50 is reported as > 11 µM (inactive).
In the case of CC(C)(C)c1nn(-c2ccccc2)c2[nH]c(=O)c(CNCc3ccco3)cc12, the EC50 is reported as > 11 µM (inactive).
For COc1ccc(/C=C2\SC(=S)N(CCC(=O)NC3CCCC3)C2=O)cc1OC, the EC50 was > 11 µM (inactive).
CCN(CC)Cc1cc(O)c(CN(CC)CC)cc1O was tested, and the EC50 was > 11 µM (inactive).
In the case of N#CC1=C(N)OC2=C(C(=O)CC(c3ccccc3)C2)C1c1ccc2c(c1)OCO2 (centres undefined), the EC50 is reported as > 11 µM (inactive).
For O=C1C(=Cc2cccn2-c2ccccc2)C(=O)c2ccccc21, the EC50 was > 11 µM (inactive).
CCOC(=O)/C(C#N)=C/c1cc2ccccc2nc1N1CCCCC1 was tested, and the EC50 was > 11 µM (inactive).
With COc1ccc(N2C(=O)/C(=C/c3ccc(C)o3)C(=O)NC2=S)c(OC)c1 the EC50 was > 11 µM (inactive).
O=C(O)c1ccccc1-c1ccc(C=C2C(=O)N(c3ccccc3)C(=S)N(c3ccccc3)C2=O)o1 was tested, and the EC50 was > 11 µM (inactive).
Cn1c(=O)c2[nH]c(N/N=C(/C#N)C(N)=O)nc2n(C)c1=O was tested, and the EC50 was > 11 µM (inactive).
With CCCCC1=CC2=CC(=O)C(C)(OC(=O)CCc3ccccc3)C(=O)C2=CO1 (centres undefined) the EC50 was > 11 µM (inactive).
In the case of O=C(NCc1ccccn1)C1Nc2ccc(C(F)(F)F)cc2C2C=CCC12 (centres undefined), the EC50 is reported as > 11 µM (inactive).
For Cc1n[nH]c(=S)c2nn(-c3cccc(Cl)c3)c(C)c12, the EC50 was > 11 µM (inactive).
For Oc1ccc(C2C[C@H]3CC[C@@H]2C3)cc1O (some centres undefined), the EC50 was > 11 µM (inactive).
For COc1cc(OC)c(OC)cc1/C=C1\Oc2cc(OS(C)(=O)=O)ccc2C1=O, the EC50 was > 11 µM (inactive).
COc1ccc(/C=C/C(=O)c2c(C)cc(C)[nH]c2=O)c2ccccc12 was tested, and the EC50 was > 11 µM (inactive).
With O=C1CSC(=S)N1/N=C/c1ccc(Cl)c([N+](=O)[O-])c1 the EC50 was > 11 µM (inactive).
With CC1OC(Oc2c(-c3cc(O)c(O)c(O)c3)oc3cc(O)cc(O)c3c2=O)C(O)C(O)C1O (centres undefined) the EC50 was > 11 µM (inactive).
With CC(C)(C)c1ccc(C(=O)Nc2cccc3ncccc23)cc1 the EC50 was > 11 µM (inactive).
With O=c1[nH]c(=O)n(Cc2ccccc2Cl)c(O)c1C=Nc1ccc(F)cc1 the EC50 was > 11 µM (inactive).
O=C(O)c1ccc(-c2ccc(/C=C3\NC(=O)N(Cc4ccc(Cl)cc4)C3=O)o2)cc1Cl was tested, and the EC50 was > 11 µM (inactive).
In the case of CN1C(=O)/C(=C/C=C/c2ccco2)C(=O)NC1=S, the EC50 is reported as > 11 µM (inactive).
With COCCNC(=O)C1Nc2ccc(OC(F)(F)F)cc2C2C=CCC12 (centres undefined) the EC50 was > 11 µM (inactive).
For O=C(O)c1cc(Cl)c2c(c1)[C@@H]1C=CC[C@@H]1[C@H](c1ccc(S(=O)(=O)N3CCOCC3)cc1)N2, the EC50 was > 11 µM (inactive).
With COc1ccc(/C=N/N=C2/CC(C)(C)Cc3n[nH]c(=O)cc32)cc1 the EC50 was > 11 µM (inactive).
For c1coc(-c2nc3ccccc3nc2-c2ccco2)c1, the EC50 was > 11 µM (inactive).
For O=C1C2=C(SCCS2)C(=O)N1c1ccccc1, the EC50 was > 11 µM (inactive).
With O=C(O)c1cccc(-n2cccc2/C=N/O)c1 the EC50 was > 11 µM (inactive).
COc1ccc(NC(=O)/C=C/c2cccc(Br)c2)cn1 was tested, and the EC50 was > 11 µM (inactive).
With COc1cccc(N2C(=O)NC(=O)/C(=C/c3ccc([N+](=O)[O-])s3)C2=O)c1 the EC50 was > 11 µM (inactive).
In the case of O=C(O)COc1ccc(/C=C/c2nc(-c3ccccc3O)n[nH]2)cc1, the EC50 is reported as > 11 µM (inactive).
In the case of N=C1c2ccccc2CN1NC(=O)CC12CC3CC(CC(C3)C1)C2, the EC50 is reported as > 11 µM (inactive).
With O=C1/C(=N\S(=O)(=O)c2cccs2)C([n+]2ccc(CCCc3ccccc3)cc2)=C([O-])c2ccccc21 the EC50 was > 11 µM (inactive).
With CC(=O)Nc1ccc(N=Cc2nc(-c3ccc(C)cc3)oc2O)cc1 the EC50 was > 11 µM (inactive).
With COC(=O)c1c(NC(=O)CC2Nc3ccccc3NC2=O)sc(C)c1C (centres undefined) the EC50 was > 11 µM (inactive).
For N#Cc1c(N)n(-c2cccc(C(=O)O)c2)c2nc3ccccc3nc12, the EC50 was > 11 µM (inactive).
With O=[N+]([O-])c1ccc(C2=Nc3cc(Cl)ccc3OC2)cc1 the EC50 was > 11 µM (inactive).
O=C(O)c1ccccc1-n1cccc1C(=O)O was tested, and the EC50 was > 11 µM (inactive).
For CCN(CC)c1ccc2cc(NC(=O)CCC(=O)O)c(=O)oc2c1, the EC50 was > 11 µM (inactive).
In the case of CCCCc1cn([C@@H](CCCCN)C(=O)N2CCNCC2)nn1, the EC50 is reported as > 11 µM (inactive).
In the case of C=CCN1C(=O)NC(=O)/C(=C/c2ccc(OCC(=O)Nc3ccc(C)cc3)cc2)C1=O, the EC50 is reported as > 11 µM (inactive).
In the case of CC(C)OCCCn1c(=NC(=O)c2cccs2)c(C#N)cc2c(=O)n3ccccc3nc21, the EC50 is reported as > 11 µM (inactive).
With COc1ccc(NC(=O)c2sc3nc(-c4cccnc4)ccc3c2N)cc1OC the EC50 was > 11 µM (inactive).
For COc1cc(C2C(C#N)=C(N)OC3=C2C(=O)CC(C)(C)C3)ccc1OCCN1CCOCC1 (centres undefined), the EC50 was > 11 µM (inactive).
For COc1ccc(S(=O)(=O)NNC(=O)C(=O)NNc2ccccn2)cc1, the EC50 was > 11 µM (inactive).
With Nc1c(C(=O)c2ccc(Br)s2)oc2ccccc12 the EC50 was > 11 µM (inactive).
Cc1c2ccccc2nc2c(F)c(NC(C)C)c(F)c(F)c12 was tested, and the EC50 was > 11 µM (inactive).
For S=c1[nH]c2ccccc2n2c(=S)[nH]nc12, the EC50 was > 11 µM (inactive).
For CC1=C(C#N)C(=O)NC(=O)/C1=C\c1ccc(-c2ccc(C)cc2[N+](=O)[O-])o1, the EC50 was > 11 µM (inactive).
CN(C)CCCN1C(=O)c2cccc3c(Br)ccc(c23)C1=O was tested, and the EC50 was > 11 µM (inactive).
With CCn1cc(C(=O)NCc2ccccn2)c(=O)c2cc(S(=O)(=O)N3CCCCC3)ccc21 the EC50 was > 11 µM (inactive).
With Cc1cc(/C=C2\C(=O)NC(=O)N(c3ccc(F)cc3)C2=O)c(C)n1-c1ccc(C(=O)O)cc1 the EC50 was > 11 µM (inactive).
In the case of Cc1cc(/C=C2\C(=O)NC(=O)N(c3ccc(Cl)cc3)C2=O)c(C)n1C, the EC50 is reported as > 11 µM (inactive).
O=C(NNc1ccccc1)C(=O)NNS(=O)(=O)c1ccc([N+](=O)[O-])cc1 was tested, and the EC50 was > 11 µM (inactive).
With COc1ccc(CCn2c(=N)c(C(=O)NC3CCCCC3)cc3c(=O)n4ccccc4nc32)cc1 the EC50 was > 11 µM (inactive).
C[C@H]1c2cccc(O)c2C(O)=C2C(=O)[C@]3(O)C(O)=C(C(N)=O)C(=O)[C@@H](N(C)C)[C@@H]3[C@@H](O)[C@@H]21 showed an EC50 of 4.67 µM.
For C=CCn1c(=O)/c(=C/c2ccc(C)o2)s/c1=C(/C#N)C(=O)c1ccccc1, the EC50 was > 11 µM (inactive).
In the case of COC(=O)CCCC1=CC2=CC(=O)C(C)(OC(=O)c3ccco3)C(=O)C2=CO1 (centres undefined), the EC50 is reported as > 11 µM (inactive).
With COc1ccc(/C=C2\CCCC(C(=O)C(F)(F)F)=C2O)cc1OC the EC50 was > 11 µM (inactive).
With O=C(c1ccco1)N1CCN(c2ncnc3c(-c4ccc(Cl)cc4)nsc23)CC1 the EC50 was > 11 µM (inactive).
With CCCCCN1C=CC=C/C1=C\C=C(C#N)C#N the EC50 was > 11 µM (inactive).
In the case of Cc1nc(S/C(C(=O)O)=C2/C(=O)Nc3ccccc32)n[nH]1, the EC50 is reported as > 11 µM (inactive).
For Cc1sc(/C=C2\C(=O)ON=C2c2ccccc2)cc1Br, the EC50 was > 11 µM (inactive).
In the case of Cc1ccc(C)c(N2CCN(C(=O)c3cc4ccccn4n3)CC2)c1, the EC50 is reported as > 11 µM (inactive).
In the case of Cc1ccc(-c2nc(C=Nc3ccc(O)cc3)c(O)o2)cc1, the EC50 is reported as > 11 µM (inactive).
With CN1CC=C2C(C#N)=C(N)C(C#N)(C#N)C(c3ccncc3)C2C1 (centres undefined) the EC50 was > 11 µM (inactive).
For Cc1cc(O)c(CN(C)C)c2c1C(=O)/C(=C/c1ccco1)O2, the EC50 was > 11 µM (inactive).
Cc1cc(/C=C2\C(=O)NC(=O)N(c3ccc(Br)cc3)C2=O)c(C)n1C was tested, and the EC50 was > 11 µM (inactive).
CCCC(C)NC(=O)c1ccc(C2SCC(=O)N2Cc2ccco2)cc1 (centres undefined) was tested, and the EC50 was > 11 µM (inactive).
For Cc1cc(O)cc2c1C(=O)/C(=C/c1ccco1)O2, the EC50 was > 11 µM (inactive).
With Oc1ccc(N=Nc2ccccc2-c2nn[nH]n2)c(O)c1 the EC50 was > 11 µM (inactive).
For COc1ccc(C(=O)NC2(C(F)(F)F)C(=O)N(Cc3ccco3)C3=C2C(=O)CC(C)(C)C3)cc1OC (centres undefined), the EC50 was > 11 µM (inactive).
CC1=CC(C)(C)N2C(=O)C3(C(C#N)=C(N)OC4=C3C(=O)CC(C)(C)C4)c3cccc1c32 (centres undefined) was tested, and the EC50 was > 11 µM (inactive).
For Cc1cccc2sc(NNC(=O)c3cc(=O)c4ccccc4o3)nc12, the EC50 was > 11 µM (inactive).
In the case of O=CN/N=C/c1c(O)ccc2ccccc12, the EC50 is reported as > 11 µM (inactive).
